Reference: patent US20140296223A1, “METHOD FOR REGULATING SKIN PIGMENTATION” (THE GENERAL HOSPITAL CORPORATION, priority 2011, published 2014)

Legend:
[1] = tested on: Microphthalmia Transcription Factor (MITF); test: TRPM1-luciferase reporter screen for MITF antagonists in Skme15 melanoma cells; assay type: cell-based, human; conditions: for Z-Score: screen, suppression of TRPM1-luciferase activity, Skme15 cells; for IC50: IC50 (described formally as qAC50), half-maximal suppression dose, unit inferred, text says potencies around 1 uM; for Conc. At Maximal Activity / Maximal Activity: dose titration; for Conc. At Maximal Activity: unit not given, in M (unit assumed); for Maximal Activity: maximal suppression of TRPM1-luciferase at any dose
Source text: In order to carry out a successful MITF antagonist screen, the inventors utilized a TRPM1-luciferase reporter. […] Therefore, the TRPM1-luciferase reporter stably integrated into melanoma cells is effective for the screening assay. The use of melanoma cells, while less perfectly relevant than primary human melanocytes, afforded the advantages of speed and reproducibility for the screen.
In order to engineer a screen which broadly suppress MITF activity either by suppression of MITF expression or by inhibition of MITF activity, the inventors utilized a luciferase reporter containing the promoter of a strong direct transcriptional target of MITF, i.e., TRPM1 gene, the inventors have identified the active ingredients having the ability of inhibiting the expression or activation of Microphthalmia Transcription Factor (MITF) for medical or esthetic benefit. The inventors have previously identified the TRPM1 gene (also called “Melastatin”) as a direct target of MITF, which contains numerous MITF binding sites, and which directly responds in potent fashion to MITF overexpression (Miller A J, Du J, Rowan S, Hershey C L, Widlund H R, Fisher D E: Transcriptional regulation of the melanoma prognostic marker melastatin (TRPM1) by MITF in melanocytes and melanoma, Cancer Res 2004, 64:509-516). TRPM1 expression also correlates closely to MITF expression within human melanoma cell lines, as well as in clinical pigmented lesions (nevi and melanomas).
The TRPM1 promoter was ligated to the luciferase gene and inserted into a retroviral vector as well as a lentiviral vector. The lentiviral vector was used to infect primary human melanocytes, which then was subjected to a primary screen using the Broad Chemical Genetics core screening facility, and its natural products/extracts libraries. As backup, the retroviral vector was used to stably integrate into the genome of melanoma cells, which can be used for the identical small molecule screen. Screen optimization was carried out using forskolin and MSH as positive control small molecules (which upregulate cAMP and MITF expression (D'Orazio J A, Nobuhisa T, Cui R, Arya M, Spry M, Wakamatsu K, Igras V, Kunisada T, Granter S R, Nishimura E K, Ito S, Fisher D E: Topical drug rescue strategy and skin protection based on the role of Mc1r in UV-induced tanning, Nature 2006, 443:340-344)). Small molecules which suppress MSH induced TRPM1-luciferase without altering cell numbers or viability, represent initial “hits” in this screen. Negative control includes a constitutive luciferase vector within the same cells (eg driven by a constitutive promoter such as thymidine kinase promoter), to control for nonspecific inhibitors of basal transcriptional machinery-something which would otherwise be assessed in detail during secondary/tertiary analyses of candidate hits.
The human melanoma cell line Skme15 was utilized due to the advantageous growth properties as well as the inventors' prior experience that Skme15 expresses a typical level of MITF protein. […] Therefore, an integrated TRPM1-luciferase reporter was generated, and the subsequent cells were cloned twice (serially) to assure purity of the reporter cell population. Cells were maintained in drug selection to assure maintenance of the luciferase reporter (when drug was omitted, eventual loss of the luciferase signal was observed). Following re-cloning, distinct isolates were selected for further use on the basis of clonogenic growth on 384 well plates, as required for the small molecule screen. A positive control for suppression of TRPM1-luciferase signal utilized: a lentivirus encoding shRNA against MITF. […] The day-to-day variability in plating efficiency was analyzed, and found very high reproducibility in the line which was selected for further use in the screen.
The screen was carried out with a library from the Broad Institute comprising a mixture of natural products, known bioactives, and additional compounds (a total of about 13,000 compounds). […]

Skme15 = test: Toxicity with fluorescence viability probe (CellTiter-Fluo Cell Viability Assay); assay type: cell-based, human; conditions: composite of the variation between drug-treated and control divided by the standard error
Procedure: Although the shape of the dose-response can vary among hits, the inventors chose to include all candidates which produce dose-dependent effects. The fourth criterion which was determined is the IC50 (described formally as qAC50) which represents the half-maximal suppression dose. Most of the candidate hits resided in the high nanomolar to low micromolar range by this criterion (all of these validation data are listed in Table 1). The fifth criterion was maximal suppression (at any dose), which represented the magnitude of suppression which was attainable regardless of the dose required to achieve it. […] The sixth criterion to be determined is the Log P partition coefficient, which is a predictor of lipophilicity. For this, the inventors have used the method of Ghose and Crippen to calculate the predicted octanol-water partition coefficient (J. Comp. Chem. 9, 80(1988)). While this is only an estimate of potential skin penetration, the analysis was carried out because it helps in prioritizing likelihood of topical effectiveness, in theory. The seventh criterion was an analysis of toxicity utilizing a fluorescence viability probe (CellTiter-Fluo™ Cell Viability Assay (Promega)). Interpretation of this endpoint is complicated by the fact that it represents a composite of the variation between drug-treated and control divided by the standard error The results shown in Table 1 indicate 34 candidate molecules which satisfied all of the criteria outlined above. […] Most of their potencies ranged slightly below or above 1 uM. While the lipophilicity scores remain imperfect predictors of skin penetration capability. However, numbers of >3 can be more likely to penetrate.

Q: What does the source list for CC(C)(C)c1ccc(C(=O)N2CCN(c3ccc([N+](=O)[O-])c(NCc4cccnc4)c3)CC2)cc1 [5-[4-(4-tert-butylbenzoyl)piperazin-1-yl]-2-nitro-N-(pyridin-3-ylmethyl)aniline]?
A: Z-Score [1]: −9.588; Viability z-score (treated minus control, divided by standard error) (Skme15): −0.8893

Q: Which Z-Score [1] does the source give for O=C(CSc1nc2cc([N+](=O)[O-])ccc2[nH]1)Nc1cc(C(F)(F)F)cc(C(F)(F)F)c1 [N-[3,5-bis(trifluoromethyl)phenyl]-2-[(5-nitro-1H-benzimidazol-2-yl)thio]acetamide] here?
A: −10.0284

Q: How did the Z-Score [1] turn out when O=C(O)CCSc1nc2ccccc2s1 [3-(1,3-benzothiazol-2-ylthio)propanoic acid] was run?
A: −9.79

Q: What about the “Viability z-score (treated minus control, divided by standard error)” value (Skme15) of the same compound?
A: −1.5092

Q: What does the source list for O=C(O)c1cccc(COc2ccc(CO)cc2Cl)c1 [3-{[2-chloro-4-(hydroxymethyl)phenoxy]methyl}benzoic acid]?
A: Z-Score [1]: −9.909; Viability z-score (treated minus control, divided by standard error) (Skme15): −1.5092

Q: Cc1ccc(C23C[C@@H]4C[C@@H](CC(CN)(C4)C2)C3)cc1C [1-[(1S,3R,5R,7S)-3-(3,4-dimethylphenyl)adamantan-1-yl]methanamine] was tested. Which IC50 [1] did it give?
A: 2.48 µM

Q: What about the “Conc. At Maximal Activity” value [1] of the same compound?
A: 6.00E−06

Q: And the “Maximal Activity” value [1]?
A: −149

Q: And the Z-Score [1]?
A: −10.8562

Q: What about the “Viability z-score (treated minus control, divided by standard error)” value (Skme15) of the same compound?
A: −1.015

Q: Which results are given for CCOc1ccc(OCC(=O)Nc2cccc(C(=O)O)c2)cc1 [3-{[(4-ethoxyphenoxy)acetyl]amino}benzoic acid]?
A: Z-Score [1]: −9.9; Viability z-score (treated minus control, divided by standard error) (Skme15): −1.5092

Q: O=C(O)COc1cccc(-c2nc3ccccc3s2)c1 [[3-(1,3-benzothiazol-2-yl)phenoxy]acetic acid] was tested. Which Z-Score [1] did it give?
A: −11.9101

Q: And the “Viability z-score (treated minus control, divided by standard error)” value (Skme15)?
A: −0.0206

Q: What does the source list for N#CC(C#N)=C(Nc1ccc(Br)cc1)SCc1ccc(F)cc1 [{[(4-bromophenyl)amino][(4-fluorobenzyl)thio]methylene}malononitrile]?
A: Z-Score [1]: −9.463; Viability z-score (treated minus control, divided by standard error) (Skme15): −1.5092

Q: How did the Z-Score [1] turn out when Cc1oc(-c2ccc3c(c2)OCCO3)cc1C(=O)NCC(=O)O [N-[5-(2,3-dihydro-1,4-benzodioxin-6-yl)-2-methyl-3-furoyl]glycine] was run?
A: −10.0065

Q: What about the “Viability z-score (treated minus control, divided by standard error)” value (Skme15) of the same compound?
A: −0.0206

Q: For Cc1ccc(C)c(C(Nc2ccccn2)c2cc(Cl)c3cccnc3c2O)c1 (stereo not drawn) [5-chloro-7-[(2,5-dimethylphenyl)(pyridin-2-ylamino)methyl]quinolin-8-ol], which Z-Score [1] is on record?
A: −8.461

Q: What about the “Viability z-score (treated minus control, divided by standard error)” value (Skme15) of the same compound?
A: −0.8893

Q: With CCOC(=O)c1c(C)n(Cc2ccccc2)c2ccc(OCC(O)CNC(C)(C)C)cc12 (stereo not drawn) [Ethyl-1-benzyl-5-[3-(tert-butylamino)-2-hydroxypropoxy]-2-methyl-1H-indole-3-carboxylate] as the compound, how does the Z-Score [1] read?
A: −7.844

Q: What about the “Viability z-score (treated minus control, divided by standard error)” value (Skme15) of the same compound?
A: −2.519

Q: Which results are given for COc1cccc(C(=O)NC(c2ccc(Cl)cc2)c2c(O)ccc3ccccc23)c1 (stereo not drawn) [N-[(4-chlorophenyl)(2-hydroxy-1-naphthyl)methyl]-3-methoxybenzamide]?
A: Z-Score [1]: −11.9861; Viability z-score (treated minus control, divided by standard error) (Skme15): −0.1221

Q: With Cc1oc2c(c1C(=O)N1CCC(C)CC1)C(=O)c1ccccc1C2=O [2-methyl-3-[(4-methylpiperidin-1-yl)carbonyl]naphtho[2,3-b]furan-4,9-dione] as the compound, how does the Z-Score [1] read?
A: −9.924

Q: What about the “Viability z-score (treated minus control, divided by standard error)” value (Skme15) of the same compound?
A: 0.1575

Q: Which results are given for Clc1ccc(C2=NN=C(N3CCCC3)SC2)cc1 [5-(4-chlorophenyl)-2-pyrrolidin-1-yl-6H-1,3,4-thiadiazine]?
A: Z-Score [1]: −9.961; Viability z-score (treated minus control, divided by standard error) (Skme15): −0.2442

Q: N#CC(C#N)=C(Nc1ccccc1Cl)SCc1cccc(F)c1 [{[(2-chlorophenyl)amino][(3-fluorobenzyl)thio]methylene}malononitrile] was tested. Which Z-Score [1] did it give?
A: −10.3064

Q: And the “Viability z-score (treated minus control, divided by standard error)” value (Skme15)?
A: −1.5092

Q: For Cc1ccc(OCC(=O)Nc2cccc(C(=O)O)c2)c(Br)c1 [3-{[(2-bromo-4-methylphenoxy)acetyl]amino}benzoic acid], which Z-Score [1] is on record?
A: −10.0837

Q: What about the “Viability z-score (treated minus control, divided by standard error)” value (Skme15) of the same compound?
A: −1.5092

Q: For COc1cc(C(=O)Nc2cc(-c3nc4ncccc4o3)ccc2C)ccc1OCc1ccc(Cl)cc1 [4-[(4-chlorobenzyl)oxy]-3-methoxy-N-(2-methyl-5-[1,3]oxazolo[4,5-b]pyridin-2-ylphenyl)benzamide], which Z-Score [1] is on record?
A: −9.256

Q: Which Z-Score [1] does the source give for Oc1c(C(Nc2ccccn2)c2c(F)cccc2Cl)cc(Cl)c2cccnc12 (stereo not drawn) [5-chloro-7-[(2-chloro-6-fluorophenyl)(pyridin-2-ylamino)methyl]quinolin-8-ol] here?
A: −9.327

Q: What about the “Viability z-score (treated minus control, divided by standard error)” value (Skme15) of the same compound?
A: −2.226

Q: CC(C)(C)[C@H]1CC[C@@]2(CC1)[C@@H](C#N)[C@]2(C#N)C(=O)c1ccccc1 [(1S,2R,3S,6S)-1-benzoyl-6-tert-butylspiro[2.5]octane-1,2-dicarbonitrile] was tested. Which IC50 [1] did it give?
A: 5.69 µM

Q: What about the “Conc. At Maximal Activity” value [1] of the same compound?
A: 1.95E−05

Q: And the “Maximal Activity” value [1]?
A: −274.1

Q: What about the Z-Score [1] of the same compound?
A: −11.0899

Q: And the “Viability z-score (treated minus control, divided by standard error)” value (Skme15)?
A: 0.4824

Q: For COc1ccc([N+](=O)[O-])cc1NC(=O)COc1ccc(C(C)(C)C)cc1Br [2-(2-bromo-4-tert-butylphenoxy)-N-(2-methoxy-5-nitrophenyl)acetamide], which Z-Score [1] is on record?
A: −12.0562

Q: What about the “Viability z-score (treated minus control, divided by standard error)” value (Skme15) of the same compound?
A: −1.6406

Q: COc1ccc2c(c1)OC1COc3cc(OC)c(OC)cc3C1C2=O (stereo not drawn) [2,3,9-trimethoxy-6a,12a-dihydrochromoeo[3,4-b]chromen-12(6H)-one] was tested. Which IC50 [1] did it give?
A: 5.38 µM

Q: And the “Conc. At Maximal Activity” value [1]?
A: 1.20E−05

Q: And the “Maximal Activity” value [1]?
A: −320.4

Q: What about the Z-Score [1] of the same compound?
A: −9.245

Q: What about the “Viability z-score (treated minus control, divided by standard error)” value (Skme15) of the same compound?
A: −4.2731

Q: With c1ccc(-c2cnc3nonc3n2)cc1 [5-phenyl[1,2,5]oxadiazolo[3,4-b]pyrazine] as the compound, how does the Z-Score [1] read?
A: −9.989

Q: What about the “Viability z-score (treated minus control, divided by standard error)” value (Skme15) of the same compound?
A: −0.0206

Q: Which Z-Score [1] does the source give for O=C(NCCCc1ccccc1)N1c2ccccc2Sc2ccccc21 [N-(3-phenylpropyl)-10H-phenothiazine-10-carboxamide] here?
A: −9.495

Q: What about the “Viability z-score (treated minus control, divided by standard error)” value (Skme15) of the same compound?
A: −4.128

Q: Which Z-Score [1] does the source give for O=c1[nH]c(=O)n(Cc2ccco2)c2c1C(C(F)(F)F)(C(F)(F)F)N=C(c1ccc(F)cc1)N2 [7-(4-fluorophenyl)-1-(2-furylmethyl)-5,5-bis(trifluoromethyl)-5,8-dihydropyrimido[4,5-d]pyrimidine-2,4(1H,3H)-dione] here?
A: −8.791

Q: And the “Viability z-score (treated minus control, divided by standard error)” value (Skme15)?
A: −2.0352

Q: Which Z-Score [1] does the source give for Cc1ccc2nc(-c3ccc(NC(=O)CSc4nnc(C)s4)cc3)sc2c1 [N-[4-(6-methyl-1,3-benzothiazol-2-yl)phenyl]-2-[(5-methyl-1,3,4-thiadiazol-2-yl)thio]acetamide] here?
A: −9.3543

Q: And the “Viability z-score (treated minus control, divided by standard error)” value (Skme15)?
A: 1.032
